Results taken from US6403626B1, “Benzimidazole derivatives” (Synaptic Pharmaceutical Corporation, priority 1994, dated 2002).
Where two headings read alike, the source gives them in different places.

Key:
[1] = molecular target: T1, α1C Human Adrenergic Receptor (Homo sapiens, UniProt P35348); test: Equilibrium competition binding, [3H] prazosin, membranes of transfected LM(tk-) cells; conditions: cloned human receptor, [3H] prazosin; for Ki: read-out: pKi Alpha-1 C (converted)
T1 construct: expressed in transfected cells; host or cells: LM(tk-) cells
T1 sequence (P35348 1-466): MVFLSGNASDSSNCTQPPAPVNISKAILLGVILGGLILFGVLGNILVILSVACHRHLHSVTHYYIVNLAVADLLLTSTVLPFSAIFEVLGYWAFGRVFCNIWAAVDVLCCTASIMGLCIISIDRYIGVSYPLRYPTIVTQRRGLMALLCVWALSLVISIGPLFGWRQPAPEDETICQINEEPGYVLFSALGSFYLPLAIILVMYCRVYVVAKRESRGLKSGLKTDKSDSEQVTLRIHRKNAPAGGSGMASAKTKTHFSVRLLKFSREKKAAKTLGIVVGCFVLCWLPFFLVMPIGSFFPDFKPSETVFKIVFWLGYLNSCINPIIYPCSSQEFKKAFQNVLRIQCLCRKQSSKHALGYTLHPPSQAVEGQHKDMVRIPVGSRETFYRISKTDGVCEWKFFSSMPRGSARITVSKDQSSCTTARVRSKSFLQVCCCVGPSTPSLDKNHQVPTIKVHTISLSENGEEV
Experimental: (§1) Binding and functional assays were performed using stably transfected human alpha adrenergic receptors. Equilibrium competition binding assays were performed with membrane preparations from cultured LM(tk-) cells stably transfected with the cloned human adrenoceptor subtypes except for α2b, which was expressed in Y-1 cells, using [^3H] prazosin for α1 receptors and [^3H] rauwolscine for α2 receptors.
(§2) Transfected cells from culture flasks were scraped into 5 ml of 5 mM Tris-HCl, 5 mM EDTA, pH 7.5, and lysed by sonication. The cell lysates were centrifuged at 1000 rpm for 5 min at 4° C., and the supernatant was centrifuged at 30,000×g for 20 min at 4° C. The pellet was suspended in 50 mM Tris-HCl, 1 mM MgCl2, and 0.1% ascorbic acid at pH 7.5. Binding of α2 antagonist [^3H] rauwolscine ([…]) to membrane preparations of LM(tk-) cells was done in a final volume of 0.25 ml and incubated at 37° C. for 20 min. Nonspecific binding was determined in the presence of 10 μM phentolamine. The reaction was stopped by filtration through GF/B filters using a cell harvester.
The construct involved ligation three partial overlapping fragments: a 5′ 0.6 kb HincII genomic clone, a central 1.8 EcoRI hippocampal cDNA clone, and a 3′ 0.6 Kb PstI genomic clone. The hippocampal cDNA fragment overlaps with the 5′ and 3′ genomic clones so that the HincII and PstI sites at the 5 and 3′ ends of the cDNA clone, respectively, were utilized for ligation. This full-length clone was cloned into the KpnI site of the expression vector, using the 5′ and 3′ KpnI sites of the fragment, derived from vector (i.e., pBluescript) and 3′-untranslated sequences, respectively. Stable cell lines were selected as described above.

[2] = molecular target: T2, α1B Human Adrenergic Receptor (Homo sapiens, UniProt P35368); test: as above
T2 construct: The entire coding region of α1B(1563 bp); expressed in transfected cells; host or cells: LM(tk-) cells
T2 sequence (P35368 1-520): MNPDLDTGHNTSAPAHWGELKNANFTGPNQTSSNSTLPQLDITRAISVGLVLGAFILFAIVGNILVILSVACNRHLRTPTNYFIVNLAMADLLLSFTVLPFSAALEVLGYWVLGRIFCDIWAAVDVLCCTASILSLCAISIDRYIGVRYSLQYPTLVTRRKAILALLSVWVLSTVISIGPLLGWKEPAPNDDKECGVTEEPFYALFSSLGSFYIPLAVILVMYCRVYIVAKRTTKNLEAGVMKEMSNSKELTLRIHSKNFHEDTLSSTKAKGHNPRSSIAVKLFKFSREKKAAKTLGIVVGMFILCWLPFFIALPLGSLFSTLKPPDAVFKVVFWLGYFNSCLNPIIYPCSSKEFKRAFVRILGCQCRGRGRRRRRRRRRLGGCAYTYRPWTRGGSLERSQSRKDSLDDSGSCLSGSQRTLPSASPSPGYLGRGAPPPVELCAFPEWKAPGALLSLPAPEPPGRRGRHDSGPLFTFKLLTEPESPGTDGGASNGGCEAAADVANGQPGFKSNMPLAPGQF
Experimental: as §1, §2
The construct involved ligating the full-length containing EcoRI brainstem cDNA fragment from ZapII into the expression vector. The stable cell lines were selected as described above.

[3] = molecular target: T3, α1A Human Adrenergic Receptor (Homo sapiens, UniProt P25100); test: as above
T3 construct: expressed in transfected cells; host or cells: LM(tk-) cells
T3 sequence (P25100 1-572): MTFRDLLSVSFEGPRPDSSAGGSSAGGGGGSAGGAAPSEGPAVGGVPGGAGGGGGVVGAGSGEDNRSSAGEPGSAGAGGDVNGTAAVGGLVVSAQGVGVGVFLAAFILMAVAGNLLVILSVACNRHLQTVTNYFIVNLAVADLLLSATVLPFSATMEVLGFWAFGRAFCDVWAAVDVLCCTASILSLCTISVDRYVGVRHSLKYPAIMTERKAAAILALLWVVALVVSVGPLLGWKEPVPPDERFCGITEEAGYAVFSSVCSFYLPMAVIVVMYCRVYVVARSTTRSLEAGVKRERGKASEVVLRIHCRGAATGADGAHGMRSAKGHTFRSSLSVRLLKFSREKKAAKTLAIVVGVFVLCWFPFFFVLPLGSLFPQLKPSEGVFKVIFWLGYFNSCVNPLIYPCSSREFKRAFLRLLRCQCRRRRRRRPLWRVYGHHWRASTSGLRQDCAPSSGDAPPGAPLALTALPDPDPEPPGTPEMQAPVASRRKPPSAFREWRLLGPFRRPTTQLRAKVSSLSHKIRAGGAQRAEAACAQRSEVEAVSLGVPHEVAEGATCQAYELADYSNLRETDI
Experimental: as §1, §2
(§3) Stable cell lines were selected as described above.

[4] = molecular target: T4, α2C Human Adrenergic Receptor (Homo sapiens, UniProt P18825); test: Equilibrium competition binding, [3H] rauwolscine, membranes of transfected LM(tk-) cells
T4 sequence (P18825 1-462): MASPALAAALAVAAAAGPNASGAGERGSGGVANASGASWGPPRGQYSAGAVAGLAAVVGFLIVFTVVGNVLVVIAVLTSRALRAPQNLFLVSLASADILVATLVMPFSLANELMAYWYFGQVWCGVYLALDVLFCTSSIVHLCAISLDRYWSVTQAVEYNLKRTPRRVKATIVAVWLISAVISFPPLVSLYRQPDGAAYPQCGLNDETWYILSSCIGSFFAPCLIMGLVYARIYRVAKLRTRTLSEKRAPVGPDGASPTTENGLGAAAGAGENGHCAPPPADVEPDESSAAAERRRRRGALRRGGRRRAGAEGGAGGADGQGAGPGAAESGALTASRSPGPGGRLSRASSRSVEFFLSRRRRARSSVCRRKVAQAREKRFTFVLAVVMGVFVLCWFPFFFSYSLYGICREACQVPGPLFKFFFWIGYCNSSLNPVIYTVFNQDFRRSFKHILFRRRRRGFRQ

[5] = molecular target: T5, α2B Human Adrenergic Receptor (Homo sapiens, UniProt P18089); test: Equilibrium competition binding, [3H] rauwolscine, membranes of transfected Y-1 cells
T5 construct: expressed in transfected cells; host or cells: Y-1 cells
T5 sequence (P18089 1-450): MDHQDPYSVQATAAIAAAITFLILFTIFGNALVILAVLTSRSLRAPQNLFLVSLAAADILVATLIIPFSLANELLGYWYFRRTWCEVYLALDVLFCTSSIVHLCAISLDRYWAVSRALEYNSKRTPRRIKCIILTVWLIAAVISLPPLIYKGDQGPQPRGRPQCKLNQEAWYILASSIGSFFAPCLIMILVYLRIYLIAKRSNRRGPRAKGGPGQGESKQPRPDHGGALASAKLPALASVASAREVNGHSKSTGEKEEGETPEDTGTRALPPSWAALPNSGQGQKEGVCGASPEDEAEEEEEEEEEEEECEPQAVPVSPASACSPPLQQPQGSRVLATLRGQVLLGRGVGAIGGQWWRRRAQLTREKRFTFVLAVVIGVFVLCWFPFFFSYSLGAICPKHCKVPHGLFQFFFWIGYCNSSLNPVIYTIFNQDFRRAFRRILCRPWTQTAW
Experimental: as §1, §3, §2

[6] = molecular target: T5, α2B Human Adrenergic Receptor; format: cell-based
Experimental: as §1, §3
(§4) The agonist activity (expressed as pEC50) was measured as a function of the ability to inhibit the forskolin-stimulated synthesis of cyclic adenosine monophosphate (cAMP). The stably transfected cells were incubated in Ham's F10 with 5 mM theophylline, 10 mM HEPES, 10 μM pargyline, and/or appropriate concentrations of forskolin for 20 min at 37° C. in 5% CO2. The tested compounds were then added to a final concentration of 0.001 nM to 1 μM and incubated for an additional 15 min at 37° C. in 5% CO2. The medium was aspirated and the reaction was stopped by the addition of 100 mM HCl . […] The plates are stored at 4° C. for 15 min and assayed to determine the linear concentration of cAMP. The appropriate dilution is interpolated from the standard curve of cold cAMP. The assessment of cAMP formation is determined by radioimmunoassay (cAMP radioimmunoassay kit; Advanced Magnetics, Cambridge, Mass.). Radioactivity was quantified using a Packard COBRA Auto Gamma counter, equipped with data reduction software.

[7] = molecular target: T4, α2C Human Adrenergic Receptor; format: cell-based; set-up: The entire coding region of α2C (1383 bp), including 2 bp of 5′ UT and 400 bp of 3′ UT; expressed in transfected cells; host or cells: LM(tk-) cells; conditions: for I.A Alpha-2 C: functional cAMP assay
Experimental: as §1
The insert housing this coding region was an @ 1.8 kb Ncol/EcoRI human spleen genomic fragment which was end-blunted by either T4 polymerase or Klenow fragment of DNA polymerase. Stable cell lines were selected as described above.
as §4

[8] = cloned human receptor, [3H] prazosin, read-out: pKi Alpha-1 B (converted)
[9] = cloned human receptor, [3H] prazosin
[10] = cloned human receptor, [3H] rauwolscine
[11] = cloned human receptor, [3H] rauwolscine, read-out: pKi Alpha-2 B (converted)

SMILES	Ki [1] [nM]	Ki [2, 8] [nM]	Ki [3] [nM]	Ki [4] [nM]	Ki [5] [nM]	Ki [5, 11] [nM]	further results
Cn1cnc2ccc(NC3=NCCN3)cc21 [Example 11, 3-Methyl-5-(2-imidazolin-2-ylamino)Benzimidazole]	5750	35500	10000	1120	224		
CCCn1cnc2c(Br)c(NC3=NCCN3)ccc21 [Example 14, 1-Propyl-4-bromo-5-(imidazolin-2-ylamino)Benzimidazole]							pKi Alpha-1 C [1]: 6.21; pKi Alpha-1 B [2, 9]: 4.69; pKi Alpha-1 A [3, 9]: 5.63; pKi Alpha-2 C [4, 10]: 6.64; pKi Alpha-2 B [5, 10]: 6.66
CCCn1cnc2ccc(NC3=NCCN3)cc21 [Example 15, 3-Propyl-5-(2-imidazolin-2-ylamino)Benzimidazole]	4900	34700	6460	871		724	
CCCn1cnc2ccc(NC3=NCCN3)c(Br)c21 [Example 16, 3-Propyl-4-bromo-5-(2-imidazolin-2-ylamino)Benzimidazole]	417	513	55			12.3	
CC(C)n1cnc2cc(NC3=NCCN3)ccc21 [Example 17, 1-Isopropyl-5-(2-imidazolin-2-ylamino)Benzimidazole]	9120		10500	832	661		Ki [2]: 44700 nM
CC(C)n1cnc2c(Br)c(NC3=NCCN3)ccc21 [Example 18, 1-Isopropyl-4-bromo-5-(2-imidazolin-2-ylamino)Benzimidazole]	891	20000	2690	282	372		
CC(C)n1cnc2ccc(NC3=NCCN3)cc21 [Example 20, 3-Isopropyl-5-(2-imidazolin-2-ylamino)Benzimidazole]	11200	58900	14800	631		724	
CC(C)n1cnc2ccc(NC3=NCCN3)c(Br)c21 [Example 21, 3-Isopropyl-4-bromo-5-(2-imidazolin-2-ylamino)Benzimidazole]	1200	4680	741			21.4	
CC(C)Cn1cnc2ccc(NC3=NCCN3)c(Br)c21 [Example 24, 3-Isobutyl-4-bromo-5-(2-imidazolin-2-ylamino)Benzimidazole]	251	4900	309		12.9		
Brc1cc(NC2=NCCN2)c(Br)c2[nH]cnc12 [Example 58, 4,7-Dibromo-5-(2-imidazolin-2-ylamino)Benzimidazole]				30.9	174		melting point: 320 to 321 °C; EC50 [6]: 28.2 nM; I.A Alpha-2 B [6]: 0.50; EC50 [7]: 3.24 nM; I.A Alpha-2 C [7]: 1.00
Cc1cc(NC2=NCCN2)c(Br)c2[nH]cnc12 [Example 59, 4-Bromo-7-methyl-5-(2-imidazolin-2-ylamino)Benzimidazole]				16.6	7.94		melting point: 242 to 244 °C; EC50 [6]: 40.7 nM; I.A Alpha-2 B [6]: 0.90; EC50 [7]: 1.29 nM; I.A Alpha-2 C [7]: 1.00
